Target: T1, human PAH with the R408W mutation (A375 R408W cells) (Homo sapiens, UniProt P00439, R408W)
T1 construct: expressed in transfected cells
T1 sequence (P00439 1-452 R408W): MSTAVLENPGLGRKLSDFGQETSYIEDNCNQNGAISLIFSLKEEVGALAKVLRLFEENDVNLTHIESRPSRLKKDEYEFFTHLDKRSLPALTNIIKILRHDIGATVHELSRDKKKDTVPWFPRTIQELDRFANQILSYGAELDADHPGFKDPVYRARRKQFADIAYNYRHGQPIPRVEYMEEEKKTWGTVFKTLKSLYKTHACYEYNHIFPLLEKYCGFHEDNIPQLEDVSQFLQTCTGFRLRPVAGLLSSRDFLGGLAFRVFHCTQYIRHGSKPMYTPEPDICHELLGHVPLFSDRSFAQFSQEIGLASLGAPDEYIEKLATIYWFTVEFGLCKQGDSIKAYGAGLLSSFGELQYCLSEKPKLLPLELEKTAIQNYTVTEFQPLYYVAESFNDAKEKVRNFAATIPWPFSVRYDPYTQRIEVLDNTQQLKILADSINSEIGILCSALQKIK
Assay: Cell Based Phenylalanine Flux Assay
Details: 24 hrs with compound, then 20 μM sepiapterin and 800 μM 13C9,15N-Phenylalanine for 4 hours, 13C-Tyrosine by LC-MS, average where tested multiple times
Procedure, shortened: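 Puromycin-selected A375 line, lentiviral hPAH R408W; cmpd 24 h, 37 °C, 5% CO2, 0.5% DMSO; then 20 μM sepiapterin + 800 μM 13C9,15N-Phe, 4 h; media extracted in 80% MeCN; 13C-Tyr by LC-MS; AC50 from 10-pt curves.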

[1] = A375 cells expressing R408W PAH

| SMILES | AC50 (A375 R408W cells) | AC50 [1] |
| --- | --- | --- |
| O=C(c1cnn2cc(Br)c(Cl)cc12)N1CCc2[nH]cnc2[C@@H]1c1nc2cc(F)ccc2o1 [Example 166, (R)-(6-bromo-5-chloropyrazolo[1,5-a]pyridin-3-yl)(4-(5-fluorobenzo[d]oxazol-2-yl)-6,7-dihydro-1H-imidazo[4,5-c]pyridin-5(4H)-yl)methanone] | ≥ 5000 nM | – |
| Cc1cc(F)c2oc([C@@H]3c4nc[nH]c4CCN3C(=O)c3oc(C(C)(C)O)nc3C(F)F)nc2c1 [Example 499, (S)-(4-(difluoromethyl)-2-(2-hydroxypropan-2-yl)oxazol-5-yl)(4-(7-fluoro-5-methylbenzo[d]oxazol-2-yl)-6,7-dihydro-1H-imidazo[4,5-c]pyridin-5(4H)-yl)methanone] | ≤ 500 nM | – |
| Cc1ccc2oc([C@@H]3c4nc[nH]c4CCN3C(=O)c3oc(C(C)(C)O)nc3Br)nc2c1 [Example 407, (S)-(4-bromo-2-(2-hydroxypropan-2-yl)oxazol-5-yl)(4-(5-methylbenzo[d]oxazol-2-yl)-6,7-dihydro-1H-imidazo[4,5-c]pyridin-5(4H)-yl)methanone] | ≤ 500 nM | – |
| CC(C)(O)C1CCN(c2ccc3c(C(=O)N4CCc5[nH]cnc5[C@H]4c4nc5c(F)cccc5o4)cnn3c2)CC1 [Example 507, (S)-(4-(4-fluorobenzo[d]oxazol-2-yl)-6,7-dihydro-1H-imidazo[4,5-c]pyridin-5(4H)-yl)(6-(4-(2-hydroxypropan-2-yl)piperidin-1-yl)pyrazolo[1,5-a]pyridin-3-yl)methanone] | 500 to 1000 nM | – |
| Cn1nc(C(F)(F)F)nc1C(=O)N1CCc2[nH]cnc2[C@@H]1c1nc2ccccc2o1 [Example 684, (R)-(4-(benzo[d]oxazol-2-yl)-6,7-dihydro-1H-imidazo[4,5-c]pyridin-5(4H)-yl)(1-methyl-3-(trifluoromethyl)-1H-1,2,4-triazol-5-yl)methanone] | 1000 to 5000 nM | – |
| Cc1nc(C(C)(C)N(C)C)oc1C(=O)N1CCc2[nH]cnc2C1c1nc2cc(F)ccc2o1 (centres unmarked) [listing 1 of 2 here] | – | 1000 to 5000 nM |
| COc1cccc2nc([C@@H]3c4nc[nH]c4CCN3C(=O)c3nc(C(F)(F)F)nn3C)oc12 [Example 697, (S)-(4-(7-methoxybenzo[d]oxazol-2-yl)-6,7-dihydro-1H-imidazo[4,5-c]pyridin-5(4H)-yl)(1-methyl-3-(trifluoromethyl)-1H-1,2,4-triazol-5-yl)methanone] | 500 to 1000 nM | – |
| O=C(c1cnn(-c2ccccn2)c1Cl)N1CCc2[nH]cnc2C1c1nc2cc(F)ccc2o1 (centres unmarked) | – | ≥ 5000 nM |
| CC(C)(O)c1nc(C(F)F)c(C(=O)N2CCc3[nH]cnc3[C@@H]2c2nc3cccc(F)c3o2)o1 [Example 194, (R)-(4-(difluoromethyl)-2-(2-hydroxypropan-2-yl)oxazol-5-yl)(4-(7-fluorobenzo[d]oxazol-2-yl)-6,7-dihydro-1H-imidazo[4,5-c]pyridin-5(4H)-yl)methanone] | ≤ 500 nM | – |
| O=C(c1cnco1)N1CCc2[nH]cnc2[C@H]1c1nc2cccc(F)c2o1 [Example 281, (S)-(4-(7-fluorobenzo[d]oxazol-2-yl)-6,7-dihydro-1H-imidazo[4,5-c]pyridin-5(4H)-yl)(oxazol-5-yl)methanone] | 500 to 1000 nM | – |
| CC(C)n1nccc1C(=O)N1CCc2[nH]cnc2[C@H]1c1nc2ccccc2o1 [Example 752, (S)-(4-(benzo[d]oxazol-2-yl)-6,7-dihydro-1H-imidazo[4,5-c]pyridin-5(4H)-yl)(1-isopropyl-1H-pyrazol-5-yl)methanone] | ≤ 500 nM | – |
| CC(C)(O)c1cc(C(=O)N2CCc3[nH]cnc3C2c2nc3cc(F)ccc3o2)sn1 (centres unmarked) | – | ≥ 5000 nM |
| Cc1nc(C(C)(C)N(C)C)oc1C(=O)N1CCc2[nH]cnc2C1c1nc2cc(F)ccc2o1 (centres unmarked) [listing 2 of 2 here] | – | ≥ 5000 nM |
| Cc1nc(-c2cnn(C)c2)sc1C(=O)N1CCc2[nH]cnc2C1c1nc2cc(F)ccc2o1 (centres unmarked) | – | 1000 to 5000 nM |
| Cn1cnc(-c2nc(C(F)F)c(C(=O)N3CCc4[nH]cnc4[C@@H]3c3nc4ccccc4o3)o2)c1 [Example 785, (R)-(4-(benzo[d]oxazol-2-yl)-6,7-dihydro-1H-imidazo[4,5-c]pyridin-5(4H)-yl)(4-(difluoromethyl)-2-(1-methyl-1H-imidazol-4-yl)oxazol-5-yl)methanone] | ≥ 5000 nM | – |
| Cc1cccc2nc([C@@H]3c4nc[nH]c4CCN3C(=O)c3ccnn3C(F)(F)F)oc12 [Example 710, (S)-(4-(7-methylbenzo[d]oxazol-2-yl)-6,7-dihydro-1H-imidazo[4,5-c]pyridin-5(4H)-yl)(1-(trifluoromethyl)-1H-pyrazol-5-yl)methanone] | ≤ 500 nM | – |

| SMILES | AC50 (A375 R408W cells) | AC50 [1] |
| --- | --- | --- |
| Cn1cc(-c2nnc(C(=O)N3Cc4[nH]cnc4[C@H]3c3nc4ccccc4o3)o2)cn1 [Example 935, (S)-(4-(benzo[d]oxazol-2-yl)-4,6-dihydropyrrolo[3,4-d]imidazol-5(1H)-yl)(5-(1-methyl-1H-pyrazol-4-yl)-1,3,4-oxadiazol-2-yl)methanone] | ≥ 5000 nM | – |
| Cc1nc(C2(O)CC2)oc1C(=O)N1CCc2[nH]cnc2C1c1nc2cc(F)ccc2o1 (centres unmarked) | – | 1000 to 5000 nM |
| COC(C)(C)c1nc(C)c(C(=O)N2CCc3[nH]cnc3C2c2nc3cc(F)ccc3o2)o1 (centres unmarked) | – | ≥ 5000 nM |
| O=C(c1ccnn1C(F)F)N1CCc2[nH]cnc2[C@@H]1c1nc2c(F)ccc(F)c2o1 [Example 488, (R)-(4-(4,7-difluorobenzo[d]oxazol-2-yl)-6,7-dihydro-1H-imidazo[4,5-c]pyridin-5(4H)-yl)(1-(difluoromethyl)-1H-pyrazol-5-yl)methanone] | 1000 to 5000 nM | – |
| O=C(c1nnc(-c2ccc(C(F)(F)F)cc2)o1)N1CCc2[nH]cnc2[C@@H]1c1nc2cc(F)ccc2o1 [Example 89, (R)-(4-(5-fluorobenzo[d]oxazol-2-yl)-6,7-dihydro-1H-imidazo[4,5-c]pyridin-5(4H)-yl)(5-(4-(trifluoromethyl)phenyl)-1,3,4-oxadiazol-2-yl)methanone] | 1000 to 5000 nM | – |
| COCc1ccc2c(C(=O)N3CCc4[nH]cnc4[C@H]3c3nc4cc(F)ccc4o3)cnn2c1 [Example 29, (S)-(4-(5-fluorobenzo[d]oxazol-2-yl)-6,7-dihydro-1H-imidazo[4,5-c]pyridin-5(4H)-yl)(6-(methoxymethyl)pyrazolo[1,5-a]pyridin-3-yl)methanone] | 1000 to 5000 nM | – |
| Cn1nc(Cl)nc1C(=O)N1CCc2[nH]cnc2[C@@H]1c1nc2cccc(F)c2o1 [Example 284, (R)-(3-chloro-1-methyl-1H-1,2,4-triazol-5-yl)(4-(7-fluorobenzo[d]oxazol-2-yl)-6,7-dihydro-1H-imidazo[4,5-c]pyridin-5(4H)-yl)methanone] | 1000 to 5000 nM | – |
| Cc1cc(C(=O)N2CCc3[nH]cnc3[C@@H]2c2nc3cccc(C)c3o2)n(C)n1 [Example 782, (R)-(1,3-dimethyl-1H-pyrazol-5-yl)(4-(7-methylbenzo[d]oxazol-2-yl)-6,7-dihydro-1H-imidazo[4,5-c]pyridin-5(4H)-yl)methanone] | 500 to 1000 nM | – |
| O=C(c1ocnc1C(F)(F)F)N1CCc2[nH]cnc2[C@@H]1c1nc2cc(Br)ccc2o1 [Example 148, (R)-(4-(5-bromobenzo[d]oxazol-2-yl)-6,7-dihydro-1H-imidazo[4,5-c]pyridin-5(4H)-yl)(4-(trifluoromethyl)oxazol-5-yl)methanone] | ≤ 500 nM | – |
| Cc1cccc2oc([C@H]3c4nc[nH]c4CCN3C(=O)c3oc(C(C)(C)O)nc3C(F)F)nc12 [Example 362, (R)-(4-(difluoromethyl)-2-(2-hydroxypropan-2-yl)oxazol-5-yl)(4-(4-methylbenzo[d]oxazol-2-yl)-6,7-dihydro-1H-imidazo[4,5-c]pyridin-5(4H)-yl)methanone] | 1000 to 5000 nM | – |
| O=C(c1ocnc1C(F)F)N1CCc2[nH]cnc2[C@H]1c1nc2ccccc2o1 [Example 467, (S)-(4-(benzo[d]oxazol-2-yl)-6,7-dihydro-1H-imidazo[4,5-c]pyridin-5(4H)-yl)(4-(difluoromethyl)oxazol-5-yl)methanone] | ≤ 500 nM | – |
| C[C@@H](O)c1nc(C(F)F)c(C(=O)N2CCc3[nH]cnc3[C@H]2c2nc3ccc(F)cc3o2)o1 [Example 239, (4-(difluoromethyl)-2-((R)-1-hydroxyethyl)oxazol-5-yl)((S)-4-(6-fluorobenzo[d]oxazol-2-yl)-6,7-dihydro-1H-imidazo[4,5-c]pyridin-5(4H)-yl)methanone] | 500 to 1000 nM | – |
| Cn1ncnc1C(=O)N1CCc2[nH]cnc2C1c1nc2ccc(F)cc2o1 (centres unmarked) | – | 1000 to 5000 nM |
| Cc1nc(C(C)O)oc1C(=O)N1CCc2[nH]cnc2C1c1nc2cc(F)ccc2o1 (centres unmarked) | – | ≥ 5000 nM |
| Cn1nc(Cl)cc1C(=O)N1CCc2[nH]cnc2[C@@H]1c1nc2cc(F)ccc2o1 [Example 128, (R)-(3-chloro-1-methyl-1H-pyrazol-5-yl)(4-(5-fluorobenzo[d]oxazol-2-yl)-6,7-dihydro-1H-imidazo[4,5-c]pyridin-5(4H)-yl)methanone] | 1000 to 5000 nM | – |
| O=C(c1ocnc1C(F)(F)F)N1CCc2[nH]cnc2[C@@H]1c1nc2c(F)cccc2o1 [Example 168, (R)-(4-(4-fluorobenzo[d]oxazol-2-yl)-6,7-dihydro-1H-imidazo[4,5-c]pyridin-5(4H)-yl)(4-(trifluoromethyl)oxazol-5-yl)methanone] | 1000 to 5000 nM | – |

From patent US20250171437A1 (Agios Pharmaceuticals,Inc., priority 2022, published 2025)
